The results in this text go back to PMC7892824, “Eltrombopag directly inhibits BAX and prevents cell death” (Nature Communications, 2021).

The structures appear in SMILES notation.

The target in one assay is T1, BAX R134E (Homo sapiens, UniProt Q07812, R134E).
T1 construct: full-length (1–192)
Description: 1H-15N HSQC NMR chemical shift perturbation; liposomal release inhibition. The assay is classed as binding.

The next assay has as its target T2, BAX (Mus musculus, UniProt Q07813).
T2 construct: endogenous BAX in BAK KO mouse embryonic fibroblasts
Description: CETSA, […] EO, TM lowered by […] °C. The assay is classed as cell-based. Conditions: read-out: CETSA, 10 μM EO, TM lowered by 9 °C.

T2 sequence (Q07813 whole entry): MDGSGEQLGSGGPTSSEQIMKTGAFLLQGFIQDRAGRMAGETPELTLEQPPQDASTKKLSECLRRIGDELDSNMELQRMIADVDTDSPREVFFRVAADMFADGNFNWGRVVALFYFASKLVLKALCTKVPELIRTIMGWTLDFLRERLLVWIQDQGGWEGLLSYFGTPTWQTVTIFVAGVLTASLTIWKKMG
T1 sequence (Q07812 whole entry R134E): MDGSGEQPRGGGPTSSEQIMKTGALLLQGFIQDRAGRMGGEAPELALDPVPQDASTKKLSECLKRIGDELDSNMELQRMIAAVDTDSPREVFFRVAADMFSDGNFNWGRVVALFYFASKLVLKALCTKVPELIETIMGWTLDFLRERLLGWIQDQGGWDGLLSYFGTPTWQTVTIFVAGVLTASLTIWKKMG

Regarding `CC1=NN(c2ccc(C)c(C)c2)C(=O)/C1=N\Nc1cccc(-c2cccc(C(=O)O)c2)c1O` [compound 2, Eltrombopag], the “1H-15N HSQC NMR chemical shift perturbation; liposomal release inhibition” value at BAX R134E was “BAX R134E in the presence of EO exhibited clustering of CSPs to the trigger site, albeit with reduced CSPs”. Further, on BAX, the Tm decrease at 10 µM was determined as 9 °C.
